Usually IC50 stands for the point on the concentration scale where inhibition reaches its midpoint. Higher therefore signals lower potency.

The target in test [1] is T1, myeloperoxidase (MPO) (Homo sapiens (Human), UniProt P05164). The test can be described thus: MPO chlorination assay (APF assay). The class given is biochemical. The conditions noted are these: potency range class. The procedure, abridged: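 Chlorinating activity followed by APF cleavage to fluorescein (485/535 nm, 3 min kinetic read) after adding APF and 10 μM H2O2. Beforehand, 200 pM enzyme, compound and 120 mM NaCl sat 10 min at room temperature in 100 mM KPi, pH 7.4. Initial-rate slopes gave % inhibition; IC50 by Hill-slope fit.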

The target in test [2] is T1, myeloperoxidase (MPO). The test can be described thus: MPO peroxidation assay (Amplex Red assay). Type of test: biochemical. The conditions noted are these: potency range class. The procedure, abridged:
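IC50 values come from a four-parameter fit of rates taken from the linear 180-540 s portion of a 15 min kinetic read of resorufin (Ex 535/Em 590 nm). Amplex Red (200 μM) plus 10 mM H2O2 was added after a 10 min room-temperature preincubation of inhibitor with 200 pM MPO and 40 nM H2O2 in 100 mM KPi, pH 7.4.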

T1 sequence (P05164 49-745): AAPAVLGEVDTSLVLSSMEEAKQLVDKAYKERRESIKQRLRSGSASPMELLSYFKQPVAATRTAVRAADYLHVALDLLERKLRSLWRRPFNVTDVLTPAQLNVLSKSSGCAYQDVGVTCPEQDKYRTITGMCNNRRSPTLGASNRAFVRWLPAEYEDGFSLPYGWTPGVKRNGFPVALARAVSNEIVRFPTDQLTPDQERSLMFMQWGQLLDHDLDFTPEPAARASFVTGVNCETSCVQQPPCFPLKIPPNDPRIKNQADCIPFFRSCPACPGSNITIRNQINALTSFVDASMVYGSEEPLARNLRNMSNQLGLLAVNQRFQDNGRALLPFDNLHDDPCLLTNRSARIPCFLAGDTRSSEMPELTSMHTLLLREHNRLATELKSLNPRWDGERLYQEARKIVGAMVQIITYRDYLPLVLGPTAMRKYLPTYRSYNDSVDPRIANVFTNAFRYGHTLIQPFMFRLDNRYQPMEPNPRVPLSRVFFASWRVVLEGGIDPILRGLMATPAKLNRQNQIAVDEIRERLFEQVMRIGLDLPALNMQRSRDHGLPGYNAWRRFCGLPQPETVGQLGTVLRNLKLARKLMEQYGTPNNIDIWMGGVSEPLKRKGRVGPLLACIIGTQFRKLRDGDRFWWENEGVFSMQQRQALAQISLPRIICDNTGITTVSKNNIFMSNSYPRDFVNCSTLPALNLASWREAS

Regarding `Nc1cc(Cc2cnn(Cc3cccc(N4C[C@@H]5C[C@H]4CN5)c3)c2)c2nn[nH]c2n1` [Example 224, 7-{[1-({3-[(1S,4S)-2,5-Diazabicyclo[2.2.1]heptan-2-yl]phenyl}methyl)-1H-pyrazol-4-yl]methyl}-3H-[1,2,3]triazolo[4,5-b]pyridin-5-amine], the half-maximal inhibitory concentration (IC50) fell in the range of 1 to 100 nM against myeloperoxidase (MPO) [1] and 101 to 999 nM against myeloperoxidase (MPO) [2].
The matching figures for `Nc1cc(Cc2cnn(Cc3cccc(N4CCNC5(CCC5)C4)c3)c2)c2nn[nH]c2n1` [Example 225, 7-({1-[(3-{5,8-Diazaspiro[3.5]nonan-8-yl}phenyl)methyl]-1H-pyrazol-4-yl}methyl)-3H-[1,2,3]triazolo[4,5-b]pyridin-5-amine]: 1 to 100 nM and 101 to 999 nM.
The matching figures for `C[C@@H]1CN(c2cc(Cn3cc(Cc4cc(N)nc5[nH]nnc45)cn3)ccc2F)C[C@H](C)N1` [Example 226, 7-{[1-({3-[cis-3,5-Dimethylpiperazin-1-yl]-4-fluorophenyl}methyl)-1H-pyrazol-4-yl]methyl}-3H-[1,2,3]triazolo[4,5-b]pyridin-5-amine]: 101 to 999 nM and 1 to 100 nM.
The matching figures for `Nc1cc(Cc2cnn(Cc3cccc(N4CCNCC4Cc4ccccc4)c3)c2)c2nn[nH]c2n1` (stereo not shown) [Example 227, 7-[(1-{[3-(2-Benzylpiperazin-1-yl)phenyl]methyl}-1H-pyrazol-4-yl)methyl]-3H-[1,2,3]triazolo[4,5-b]pyridin-5-amine]: 101 to 999 nM and 101 to 999 nM.
With `C[C@@H]1CN(c2cccc(Cn3cc(Cc4cc(N)nc5[nH]nnc45)cn3)c2)C[C@H](C)O1` [Example 228, 7-{[1-({3-[cis-2,6-Dimethylmorpholin-4-yl]phenyl}methyl)-1H-pyrazol-4-yl]methyl}-3H-[1,2,3]triazolo[4,5-b]pyridin-5-amine], the IC50 against myeloperoxidase (MPO) [1] and against myeloperoxidase (MPO) [2] was 101 to 999 nM in each case.
Consider `Nc1cc(Cc2cnn(Cc3cccc(N4CC5C(N)C5C4)c3)c2)c2nn[nH]c2n1` [Example 229, (1R,5S,6S)-3-(3-{[4-({5-Amino-3H-[1,2,3]triazolo[4,5-b]pyridin-7-yl}methyl)-1H-pyrazol-1-yl]methyl}phenyl)-3-azabicyclo[3.1.0]hexan-6-amine], for which the IC50 against myeloperoxidase (MPO) [1] fell in the range of 1 to 100 nM; against myeloperoxidase (MPO) [2], 101 to 999 nM.
Take `Nc1cc(Cc2cnn(Cc3cccc(Oc4cccc5c4CNC5)c3)c2)c2nn[nH]c2n1` [Example 231, 7-[(1-{[3-(2,3-Dihydro-1H-isoindol-4-yloxy)phenyl]methyl}-1H-pyrazol-4-yl)methyl]-3H-[1,2,3]triazolo[4,5-b]pyridin-5-amine]: the half-inhibitory concentration (IC50) against myeloperoxidase (MPO) [1] and against myeloperoxidase (MPO) [2] was 1 to 100 nM throughout.
`COC(=O)CNCc1cccc(Oc2cccc(Cn3cc(Cc4cc(N)nc5[nH]nnc45)cn3)c2)c1` [Example 232, Methyl 2-({[3-(3-{[4-({5-amino-3H-[1,2,3]triazolo[4,5-b]pyridin-7-yl}methyl)-1H-pyrazol-1-yl]methyl}phenoxy)phenyl]methyl}amino)acetate]: the values for the IC50 at myeloperoxidase (MPO) [1] and on myeloperoxidase (MPO) [2] were 101 to 999 nM and 1 to 100 nM, respectively.
With `Nc1cc(Cc2cnn(Cc3cccc(OCCC4CCc5ccccc54)c3)c2)c2nn[nH]c2n1` (stereo not shown) [Example 233, 7-{[1-({3-[2-(2,3-Dihydro-1H-inden-1-yl)ethoxy]phenyl}methyl)-1H-pyrazol-4-yl]methyl}-3H-[1,2,3]triazolo[4,5-b]pyridin-5-amine], the IC50 against myeloperoxidase (MPO) [1] and against myeloperoxidase (MPO) [2] was 101 to 999 nM each time.
For `Nc1cc(Cc2cnn(Cc3cccc(OC4CCCNC4)c3)c2)c2nn[nH]c2n1` (stereo not shown) [Example 234, 7-[(1-{[3-(Piperidin-3-yloxy)phenyl]methyl}-1H-pyrazol-4-yl)methyl]-3H-[1,2,3]triazolo[4,5-b]pyridin-5-amine], the 50% inhibitory concentration (IC50) on myeloperoxidase (MPO) [1] and against myeloperoxidase (MPO) [2] was 1 to 100 nM in each case.
With `Nc1cc(Cc2cnn(Cc3cccc(OCC4CCc5ccccc54)c3)c2)c2nn[nH]c2n1` (stereo not shown) [Example 235, 7-[(1-{[3-(2,3-Dihydro-1H-inden-1-ylmethoxy)phenyl]methyl}-1H-pyrazol-4-yl)methyl]-3H-[1,2,3]triazolo[4,5-b]pyridin-5-amine], the IC50 on myeloperoxidase (MPO) [1] and on myeloperoxidase (MPO) [2] was 101 to 999 nM in each case.
Regarding `Nc1cc(Cc2cnn(Cc3cccc(Oc4cccc(C5CCNCC5)c4)c3)c2)c2nn[nH]c2n1` [Example 236, 7-{[1-({3-[3-(Piperidin-4-yl)phenoxy]phenyl}methyl)-1H-pyrazol-4-yl]methyl}-3H-[1,2,3]triazolo[4,5-b]pyridin-5-amine], the IC50 on myeloperoxidase (MPO) [1] and against myeloperoxidase (MPO) [2] was 1 to 100 nM in each case.
Take `Nc1cc(Cc2cnn(Cc3cccc(Oc4cccc5c4CNCC5)c3)c2)c2nn[nH]c2n1` [Example 237, 7-[(1-{[3-(1,2,3,4-Tetrahydroisoquinolin-8-yloxy)phenyl]methyl}-1H-pyrazol-4-yl)methyl]-3H-[1,2,3]triazolo[4,5-b]pyridin-5-amine]: the IC50 against myeloperoxidase (MPO) [1] and at myeloperoxidase (MPO) [2] was 1 to 100 nM each time.
Regarding `Nc1cc(Cc2cnn(Cc3cccc(Oc4cccc(C5CCCN5)c4)c3)c2)c2nn[nH]c2n1` (stereo not shown) [Example 238, 7-{[1-({3-[3-(Pyrrolidin-2-yl)phenoxy]phenyl}methyl)-1H-pyrazol-4-yl]methyl}-3H-[1,2,3]triazolo[4,5-b]pyridin-5-amine], the IC50 against myeloperoxidase (MPO) [1] and against myeloperoxidase (MPO) [2] was 1 to 100 nM in each case.
Take `Nc1cc(Cc2cnn(Cc3cccc(O[C@@H]4CCNC4)c3)c2)c2nn[nH]c2n1` [Example 239, 7-{[1-({3-[(3R)-Pyrrolidin-3-yloxy]phenyl}methyl)-1H-pyrazol-4-yl]methyl}-3H-[1,2,3]triazolo[4,5-b]pyridin-5-amine]: the IC50 against myeloperoxidase (MPO) [1] and against myeloperoxidase (MPO) [2] was 1 to 100 nM each time.
Consider `Nc1cc(Cc2cnn(Cc3cccc(O[C@H]4CCNC4)c3)c2)c2nn[nH]c2n1` [Example 240, 7-{[1-({3-[(3S)-Pyrrolidin-3-yloxy]phenyl}methyl)-1H-pyrazol-4-yl]methyl}-3H-[1,2,3]triazolo[4,5-b]pyridin-5-amine], for which the IC50 at myeloperoxidase (MPO) [1] and against myeloperoxidase (MPO) [2] was 1 to 100 nM each time.
`CN1CC[C@@H](Oc2cccc(Cn3cc(Cc4cc(N)nc5[nH]nnc45)cn3)c2)C1` [Example 241, 7-({1-[(3-{[(3R)-1-Methylpyrrolidin-3-yl]oxy}phenyl)methyl]-1H-pyrazol-4-yl}methyl)-3H-[1,2,3]triazolo[4,5-b]pyridin-5-amine]: the results for the IC50 against myeloperoxidase (MPO) [1] and at myeloperoxidase (MPO) [2] were 101 to 999 nM and 1 to 100 nM, respectively.
Taken in the same sequence, the figures for `Nc1cc(Cc2cnn(Cc3cccc(OC[C@@H]4CCCN4)c3)c2)c2nn[nH]c2n1` [Example 242, 7-{[1-({3-[(2S)-Pyrrolidin-2-ylmethoxy]phenyl}methyl)-1H-pyrazol-4-yl]methyl}-3H-[1,2,3]triazolo[4,5-b]pyridin-5-amine] were 1 to 100 nM and 1 to 100 nM.
Taken in the same sequence, the figures for `Nc1cc(Cc2cnn(Cc3cccc(OC[C@H]4CCCN4)c3)c2)c2nn[nH]c2n1` [Example 243, 7-{[1-({3-[(2R)-Pyrrolidin-2-ylmethoxy]phenyl}methyl)-1H-pyrazol-4-yl]methyl}-3H-[1,2,3]triazolo[4,5-b]pyridin-5-amine] were 1 to 100 nM and 1 to 100 nM.
Turning to `Nc1cc(Cc2cnn(Cc3cccc(OC[C@@H]4CCNC4)c3)c2)c2nn[nH]c2n1` [Example 244], the IC50 on myeloperoxidase (MPO) [1] and on myeloperoxidase (MPO) [2] was 1 to 100 nM in each case.
For the molecule `COC(=O)[C@@H]1C[C@@H](Oc2cccc(Cn3cc(Cc4cc(N)nc5[nH]nnc45)cn3)c2)CN1` [Example 245, Methyl (2S,4R)-4-(3-{[4-({5-amino-3H-[1,2,3]triazolo[4,5-b]pyridin-7-yl}methyl)-1H-pyrazol-1-yl]methyl}phenoxy)pyrrolidine-2-carboxylate], the 50% inhibitory concentration (IC50) at myeloperoxidase (MPO) [1] and at myeloperoxidase (MPO) [2] was 101 to 999 nM each time.
As to `Cc1nnc([C@@H]2C[C@@H](Oc3cccc(Cn4cc(Cc5cc(N)nc6[nH]nnc56)cn4)c3)CN2)o1` [Example 246, 7-({1-[(3-{[(3R,5S)-5-(5-Methyl-1,3,4-oxadiazol-2-yl)pyrrolidin-3-yl]oxy}phenyl)methyl]-1H-pyrazol-4-yl}methyl)-3H-[1,2,3]triazolo[4,5-b]pyridin-5-amine], the IC50 against myeloperoxidase (MPO) [1] and at myeloperoxidase (MPO) [2] was 1000 to 10000 nM throughout.
`CN(C)C(=O)[C@@H]1C[C@@H](Oc2cccc(Cn3cc(Cc4cc(N)nc5[nH]nnc45)cn3)c2)CN1` [Example 247, (2S,4R)-4-(3-{[4-({5-Amino-3H-[1,2,3]triazolo[4,5-b]pyridin-7-yl}methyl)-1H-pyrazol-1-yl]methyl}phenoxy)-N,N-dimethylpyrrolidine-2-carboxamide]: the IC50 against myeloperoxidase (MPO) [1] and at myeloperoxidase (MPO) [2] was 101 to 999 nM throughout.
As for `Nc1cc(Cc2cnn(Cc3cccc(O[C@H]4CN[C@H](CO)C4)c3)c2)c2nn[nH]c2n1` [Example 248, [(2S,4R)-4-(3-{[4-({5-Amino-3H-[1,2,3]triazolo[4,5-b]pyridin-7-yl}methyl)-1H-pyrazol-1-yl]methyl}phenoxy)pyrrolidin-2-yl]methanol], the results for the half-maximal inhibitory concentration (IC50) on myeloperoxidase (MPO) [1] and on myeloperoxidase (MPO) [2] were 101 to 999 nM and 1 to 100 nM, respectively.
As for `NCc1cccc(Cn2cc(Cc3cc(N)nc4[nH]nnc34)cn2)c1` [Example 249, 7-[(1-{[3-(Aminomethyl)phenyl]methyl}-1H-pyrazol-4-yl)methyl]-3H-[1,2,3]triazolo[4,5-b]pyridin-5-amine], the figures for the IC50 on myeloperoxidase (MPO) [1] and against myeloperoxidase (MPO) [2] were 101 to 999 nM and 1 to 100 nM, respectively.
Turning to `NCc1ccc(Cn2cc(Cc3cc(N)nc4[nH]nnc34)cn2)cc1` [Example 250, 7-[(1-{[4-(Aminomethyl)phenyl]methyl}-1H-pyrazol-4-yl)methyl]-3H-[1,2,3]triazolo[4,5-b]pyridin-5-amine], the IC50 against myeloperoxidase (MPO) [1] and against myeloperoxidase (MPO) [2] was 1 to 100 nM each time.

These data come from patent US10407422B2, “Triazolopyridine inhibitors of myeloperoxidase” (priority 2015, dated 2019).
